Consider 21 compounds from patent US20260174682A1, “GAMMA-AMINOBUTYRIC ACID DERIVATIVE COMPRISING POLYCYCLIC STRUCTURE, METHOD FOR PREPARING SAME, AND USE THEREOF” (ZHONGSHAN INSTITUTE FOR DRUG DISCOVERY, SIMM, CAS., priority 2022, published 2026).

The target in series [1] is T1, human recombinant calcium ion channel Cav2.2/β3/α2δ-1 (Homo sapiens, UniProt P54289).
T1 construct: expressed in transfected cells; host or cells: CHO cells (membranes)
Put plainly: In vitro binding to human recombinant calcium ion channel Cav2.2/β3/α2δ-1 ([3H]gabapentin competition). Conditions: inhibition of binding of 5 nM [3H]gabapentin, CHO cell membranes, 25° C., 120 min; read-out: IC50. The source says: Example 28 In Vitro Binding of Compounds to Human Recombinant Calcium Ion Channel Cav2.2/β3/α2δ-1
There are four subtypes of the voltage-gated calcium ion channel α2δ subunit, α2δ-1, α2δ-2, α2δ-3 and α2δ-4, in which α2δ-1 is the subtype that mediates chronic neuropathic pain (Field, M. J. et al.; Proc. Natl. Acad. Sci. U.S.A. 2006, 103, 17537-17542). Therefore, the binding strength of a compound to α2δ-1 is a direct indicator for measuring an analgesic effect thereof on the chronic neuropathic pain (Calandre, E. P. et al.; Expert Rev. Neuroether. 2016, 16, 1263-1277).
The in vitro binding strength of the compound of the present application to human recombinant calcium ion channel Cav2.2/β3/α2δ-1 is basically operated according to a reported method (Gee, N. S. et al.; J. Biol. Chem. 1996, 271, 5768-5776; Marais, E. et al.; Mol. Pharmacol. 2001, 59, 1243-1248). CHO cells expressing the human recombinant calcium ion channel Cav2.2/β3/α2δ-1 were used in the test. After routine separation of cell membranes, 3 μg of the cell membranes were added into each well with a modified HEPES/KOH buffer solution (pH 7.4) as a solution of the test system. Then, 5 nM [^3H]gabapentin and the compound to be tested at 6 concentrations (3, 9, 27, 81, 243, and 729 nM) were added, and the test system was incubated at 25° C. for 120 min. Non-specific binding was obtained by replacing the compound to be tested in the above test system with […] gabapentin. After the incubation was completed, the cell membranes were collected by filtration and washed with 50 mM Tris-HCl (pH 7.4), and then the radioactivity of [^3H]gabapentin bound to the cell membranes was tested by a liquid scintillation technology. […] An inhibition rate of the compound of the present application on the binding of the [^3H]gabapentin to the human recombinant calcium ion channel Cav2.2/β3/α2δ-1 was calculated according to the following formula: […]
wherein • I is the radioactivity corresponding to that the compound to be tested and [^3H]gabapentin are simultaneously co-incubated with the human recombinant calcium ion channel Cav2.2/β3/α2δ-1, • I0 is the radioactivity corresponding to co-incubation of [^3H]gabapentin and the human recombinant calcium ion channel Cav2.2/β3/α2δ-1 without adding the compound to be tested into the incubation system, and • IU is the radioactivity corresponding to that 10 μM gabapentin and [^3H]gabapentin are simultaneously co-incubated with the human recombinant calcium ion channel Cav2.2/β3/α2δ-1.
The concentration of the compound to be tested that inhibits 50% of the binding of [^3H]gabapentin to the human recombinant calcium ion channel Cav2.2/β3/α2δ-1 is defined as IC50, and the IC50 is calculated by nonlinear least squares regression analysis using the above inhibition rate (MathIQ™, ID Business Solutions Ltd., UK).

Series [2] has as its system Sprague Dawley (SD) rat spared nerve injury (SNI) model. Put plainly: Analgesic effect in rat spared nerve injury (SNI) chronic neuropathic pain model. The format is in vivo. Conditions: SNI rats; for maximum possible effect (% MPE) / area under the mechanical pain threshold-time curve compared with the vehicle control group: oral gavage 30 mg/kg (calculated by free base); for maximum possible effect (% MPE) / maximum possible effect (MPE): from AUC of mechanical pain threshold-time curve to 24 h; for maximum possible effect (MPE): oral gavage 10 mg/kg (calculated by free base). The method, then: Establishment of the SNI model: Surgery was performed according to an aseptic operation method, and various surgical instruments, including scalpels, tweezers, suture needles/threads, surgical cotton, etc., were disinfected before the surgery. Animals were anesthetized by intraperitoneal injection of a Zoletil™ 50 solution at 50 mg/kg and then placed in lateral decubitus positions. After hair in surgical areas of lower bodies of animals was shaved, the animals were disinfected alternately with iodophor and 75% alcohol. The skin was cut at upper edges of left hind limbs, muscles were bluntly separated to expose a sciatic nerve trunk and 3 branches thereof, i.e., a tibial nerve, a common peroneal nerve and a sural nerve. The tibial nerve and the common peroneal nerve were ligated and cut, and the sural nerve was preserved and maintained intact. After the surgery, wounds were sutured layer by layer, the animals were administered with 25% ampicillin (1 mL/kg) through intraperitoneal injection to prevent infection, and routine nursing was performed. In sham group, only the sciatic nerve and the branches thereof were exposed, the nerves were not ligated and cut, and other operations were the same as those in the model group. Detection of a mechanical pain threshold: A Von-frey test fiber was used to detect the mechanical pain threshold of the sole of an operative side of each animal on day 1, day 3 and day 7 after the surgery, respectively. An “up-and-down” method was used as a method of detecting the mechanical pain threshold at the stimulation intensity of 0.4, 0.6, 1, 2, 4, 6, 8, and 15 g. During the test, the test fiber was used to vertically stimulate the site, close to an outer side, in the sole center of the left hind paw of a rat for 6-8 seconds each time at an interval of 5 seconds. A pain response was shown as an obvious paw withdrawal, paw licking, or paw lifting behavior of the animals during each test. From day 11 after the surgery, the animals were placed in an experimental environment for adaptation, wherein the adaptation was performed continuously for 15 min per day for 3 days. On day 13, a basic value of mechanical pain hypersensitivity was detected after the adaptation was completed. The mechanical pain hypersensitivity was expressed by a 50% paw-withdrawal threshold (PWT) according to a calculation formula of 50% PWT (g)=10^xf+kδ, wherein xf is a log value of a fiber test force, k is a tabular value, and δ is an average spacing of the log value of the fiber test force.
Pharmacodynamic evaluation: According to basic threshold detection results on day 13 after the surgery, the animals in the model group without the mechanical pain hypersensitivity, that is, the PWT was greater than 4 g, were excluded, and the other successfully modeled animals were used for a formal test. On day 14 after the surgery, various compound to be tested were newly formulated. Pregabalin was directly dissolved with 0.9% sodium chloride at a dose of 30 mg/kg to obtain a solution at a desired concentration. (±)—I-7, (±)—I-3 and (±)—I-4 p-toluenesulfonate were also completely dissolved with a 0.9% sodium chloride solution at a dose of 30 mg/kg (calculated by free base). The successfully modeled animals were randomly divided into 5 groups with 8 animals in each group. In addition, 7 animals were selected in the sham group. […] The mechanical pain hypersensitivity response of the left hind paw was detected at 1 h, 2 h, 4 h, 6 h, 8 h, 10 h, and 24 h after the administration. Evaluation was performed by using a blind method, and a detection method was the same as above. An area under a mechanical pain threshold-time curve (AUC) was calculated using GraphPad Prism Version 8.0.1 software.

Series [3] deals with male SD rats. Put plainly: Acute toxicity test on rats. The following applies: oral gavage 300 mg/kg (calculated by free base).
Experimental: After adapting to the environment for one week, the SD rats were used in a preliminary acute toxicity test. The compounds were newly formulated on the day of the test. […] After being labeled and weighed, the animals were randomly grouped with 2-4 animals in each group. […] Clinical symptoms of each animal were observed and recorded at 0.5 hours, 1 hour, 2 hours, 4 hours, 6 hours and 24 hours after the administration, respectively. Clinical symptom codes were as follows: 0 no abnormality, 1 mild tremor, 2 unsteady gait, 3 prone position, 4 startle reflex, 5 difficult breathing, 6 righting reflex disappeared, 7 eyelid closure, 8 shortness of breath, and x animal death.
Series [4] has as its system mouse 6-Hz psychomotor seizure model. Nature of the series: Antiepileptic effect in mouse 6-Hz psychomotor seizure model. The format is in vivo. The following applies: 6-Hz model, C57BL/6 mice, gavage, dose 200 mg/kg. The method, then: A negative vehicle control group, a positive drug control group (pregabalin and gabapentin) and a test group of the compounds of the present application were set. Male C57BL/6 mice with a body weight of 20±2 g were selected. […] After fasted for 12 h, the mice were administered the compounds of the present application or the control drugs, and then subjected to 6-Hz electrical stimulation to induce epilepsy seizure behaviors after a certain time interval (2 h for pregabalin, 1 h for gabapentin, 1 h for levetiracetam, and 3 h for the compounds of the present application). In an induction model, when the stimulation was performed with a Model 4100 stimulator (A-M Systems, the United States), rear necks of the mice were immobilized by hands on a feeding cage, a corneal electrode was moisten with normal saline and allowed to gently contact bilateral corneas of the mice, the electrical stimulator was trod by a foot to give the mice the electrical stimulation with a stimulation parameter of 6-Hz, a one-way square wave of 32 mA, a wave width of 0.2 ms and a stimulation duration of 3 sec, and timing was performed with a stopwatch during the stimulation. After the electrical stimulation was completed, the mice with the seizure behaviors lasting for less than 7 sec were regarded as being protected by the drugs, and the mice with the seizure behaviors lasting for more than 7 sec were regarded as being not protected from the epilepsy by the drugs. Response situations of the animals were observed and recorded, and obtained data were counted to calculate protection rates of the compounds.
Statistical method: The protection rates of different administration groups were separately compared with that of the vehicle control group to carry out a Fisher's exact test.

pIC50: −log10 of the molar value. Marks after values point to notes of the source that are not given here.

T1 sequence (P54289 25-956 limits assumed): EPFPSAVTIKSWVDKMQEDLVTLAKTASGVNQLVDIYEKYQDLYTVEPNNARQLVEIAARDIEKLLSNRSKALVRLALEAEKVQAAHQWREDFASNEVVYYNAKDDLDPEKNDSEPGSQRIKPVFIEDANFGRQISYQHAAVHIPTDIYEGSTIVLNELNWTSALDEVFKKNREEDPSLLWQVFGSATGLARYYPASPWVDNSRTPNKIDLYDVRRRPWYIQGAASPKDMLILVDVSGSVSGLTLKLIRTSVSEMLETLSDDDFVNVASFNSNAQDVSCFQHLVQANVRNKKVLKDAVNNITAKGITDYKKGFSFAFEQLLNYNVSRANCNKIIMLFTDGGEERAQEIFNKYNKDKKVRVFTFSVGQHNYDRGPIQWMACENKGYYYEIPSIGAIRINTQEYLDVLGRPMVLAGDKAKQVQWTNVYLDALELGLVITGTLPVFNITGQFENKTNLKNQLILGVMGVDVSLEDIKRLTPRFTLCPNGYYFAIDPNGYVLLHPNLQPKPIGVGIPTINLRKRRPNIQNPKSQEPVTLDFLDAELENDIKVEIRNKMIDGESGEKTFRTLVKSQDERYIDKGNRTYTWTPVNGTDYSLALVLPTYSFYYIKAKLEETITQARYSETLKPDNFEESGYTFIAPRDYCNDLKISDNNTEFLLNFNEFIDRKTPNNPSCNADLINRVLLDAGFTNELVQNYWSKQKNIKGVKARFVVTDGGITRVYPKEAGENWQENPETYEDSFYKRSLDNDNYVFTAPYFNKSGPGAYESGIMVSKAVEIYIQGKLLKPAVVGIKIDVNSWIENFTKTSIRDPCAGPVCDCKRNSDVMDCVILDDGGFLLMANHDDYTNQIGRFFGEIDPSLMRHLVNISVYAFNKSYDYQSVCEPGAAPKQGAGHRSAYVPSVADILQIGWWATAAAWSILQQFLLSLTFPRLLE
T1 sequence (P54289 957-1103 partner limits assumed): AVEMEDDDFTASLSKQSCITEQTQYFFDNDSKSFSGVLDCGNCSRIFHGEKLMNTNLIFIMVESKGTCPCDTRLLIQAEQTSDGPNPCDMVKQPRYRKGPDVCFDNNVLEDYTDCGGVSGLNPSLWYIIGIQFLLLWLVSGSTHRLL
T1 sequence (Q00975 whole entry partner): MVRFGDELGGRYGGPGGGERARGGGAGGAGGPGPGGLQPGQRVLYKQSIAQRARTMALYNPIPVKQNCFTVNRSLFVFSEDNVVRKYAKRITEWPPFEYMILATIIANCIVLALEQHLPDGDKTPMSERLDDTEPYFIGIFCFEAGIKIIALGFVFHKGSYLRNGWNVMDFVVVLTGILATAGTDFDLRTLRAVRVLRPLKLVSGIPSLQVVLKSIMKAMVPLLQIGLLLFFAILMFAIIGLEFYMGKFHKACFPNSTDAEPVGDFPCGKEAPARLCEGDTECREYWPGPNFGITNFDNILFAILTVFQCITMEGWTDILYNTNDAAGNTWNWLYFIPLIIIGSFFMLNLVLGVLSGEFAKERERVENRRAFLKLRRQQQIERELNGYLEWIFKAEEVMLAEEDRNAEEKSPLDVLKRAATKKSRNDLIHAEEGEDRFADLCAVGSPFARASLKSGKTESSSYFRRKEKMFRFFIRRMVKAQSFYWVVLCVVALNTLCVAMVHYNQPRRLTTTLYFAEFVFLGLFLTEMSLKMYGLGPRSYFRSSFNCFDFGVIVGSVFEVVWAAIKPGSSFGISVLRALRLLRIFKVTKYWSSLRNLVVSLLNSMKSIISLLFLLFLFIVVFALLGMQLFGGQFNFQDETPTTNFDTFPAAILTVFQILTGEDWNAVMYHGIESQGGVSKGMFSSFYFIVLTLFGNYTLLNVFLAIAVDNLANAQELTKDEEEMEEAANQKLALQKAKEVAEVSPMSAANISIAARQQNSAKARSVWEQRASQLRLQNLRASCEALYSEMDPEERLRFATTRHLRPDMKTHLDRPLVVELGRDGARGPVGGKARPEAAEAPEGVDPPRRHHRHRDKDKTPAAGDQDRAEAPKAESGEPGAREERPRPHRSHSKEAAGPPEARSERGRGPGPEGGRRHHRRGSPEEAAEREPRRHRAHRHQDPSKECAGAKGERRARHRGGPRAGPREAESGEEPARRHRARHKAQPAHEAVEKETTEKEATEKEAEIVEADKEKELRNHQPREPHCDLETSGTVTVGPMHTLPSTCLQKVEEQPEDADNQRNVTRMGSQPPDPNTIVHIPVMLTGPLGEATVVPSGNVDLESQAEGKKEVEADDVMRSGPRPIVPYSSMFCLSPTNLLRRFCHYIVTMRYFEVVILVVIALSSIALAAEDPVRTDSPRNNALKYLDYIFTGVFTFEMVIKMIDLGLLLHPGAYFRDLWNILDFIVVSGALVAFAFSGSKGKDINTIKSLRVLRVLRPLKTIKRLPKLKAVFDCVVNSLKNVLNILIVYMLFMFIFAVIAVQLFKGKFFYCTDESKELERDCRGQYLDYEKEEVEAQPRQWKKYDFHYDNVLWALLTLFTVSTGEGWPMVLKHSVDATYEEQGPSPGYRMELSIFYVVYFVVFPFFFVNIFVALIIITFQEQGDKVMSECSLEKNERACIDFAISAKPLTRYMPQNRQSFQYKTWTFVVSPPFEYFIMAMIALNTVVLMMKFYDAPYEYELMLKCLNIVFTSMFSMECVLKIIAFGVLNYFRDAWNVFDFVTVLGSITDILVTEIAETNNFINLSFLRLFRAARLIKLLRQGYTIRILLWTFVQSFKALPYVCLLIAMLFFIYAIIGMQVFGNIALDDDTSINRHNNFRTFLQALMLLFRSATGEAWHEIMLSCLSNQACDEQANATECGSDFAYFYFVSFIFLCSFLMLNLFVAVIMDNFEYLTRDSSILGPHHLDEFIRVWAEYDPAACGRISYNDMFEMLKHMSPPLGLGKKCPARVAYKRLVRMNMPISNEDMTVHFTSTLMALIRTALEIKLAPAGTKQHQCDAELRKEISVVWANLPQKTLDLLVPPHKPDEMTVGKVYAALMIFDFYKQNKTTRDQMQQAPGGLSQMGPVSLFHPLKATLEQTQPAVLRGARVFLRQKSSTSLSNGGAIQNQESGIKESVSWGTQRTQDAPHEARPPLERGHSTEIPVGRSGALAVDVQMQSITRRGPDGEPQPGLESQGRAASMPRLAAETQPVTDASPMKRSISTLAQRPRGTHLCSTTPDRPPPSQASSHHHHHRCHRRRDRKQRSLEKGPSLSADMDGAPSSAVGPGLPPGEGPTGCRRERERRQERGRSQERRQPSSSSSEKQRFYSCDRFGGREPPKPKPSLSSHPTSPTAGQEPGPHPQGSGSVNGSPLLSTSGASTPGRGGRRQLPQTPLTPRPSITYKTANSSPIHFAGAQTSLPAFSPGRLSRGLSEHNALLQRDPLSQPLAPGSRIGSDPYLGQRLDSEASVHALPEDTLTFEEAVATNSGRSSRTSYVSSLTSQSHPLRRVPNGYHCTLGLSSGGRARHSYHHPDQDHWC
T1 sequence (P54284 whole entry partner): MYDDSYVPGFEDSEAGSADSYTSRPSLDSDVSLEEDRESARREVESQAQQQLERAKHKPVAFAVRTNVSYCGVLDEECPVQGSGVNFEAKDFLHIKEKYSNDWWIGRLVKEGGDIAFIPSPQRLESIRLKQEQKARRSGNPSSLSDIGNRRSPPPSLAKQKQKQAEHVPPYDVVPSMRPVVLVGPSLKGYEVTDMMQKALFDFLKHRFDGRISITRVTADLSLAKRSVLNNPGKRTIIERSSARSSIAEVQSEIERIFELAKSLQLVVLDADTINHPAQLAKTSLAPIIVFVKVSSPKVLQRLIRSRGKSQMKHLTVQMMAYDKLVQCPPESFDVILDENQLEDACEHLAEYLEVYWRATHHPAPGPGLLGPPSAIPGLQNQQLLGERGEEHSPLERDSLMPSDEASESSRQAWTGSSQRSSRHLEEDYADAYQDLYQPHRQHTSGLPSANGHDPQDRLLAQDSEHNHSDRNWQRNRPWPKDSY

A word on the pIC50: it is −log10 of the IC50, conventionally taken in molar units. In the case of `NCC1(CC(=O)O)CC2C3CCC(C3)C21` (racemic) [(±)-I-1], the pIC50 in series [1] was < 6.14.

`NCC1(CC(=O)O)C[C@@H]2C1C1C=C[C@H]2C1` (mixture of isomers) [(±)-I-2]: the pIC50 in series [1] is 6.33.

As to `NCC1(CC(=O)O)CC2C3CC[C@@H](C3)[C@@H]21` (mixture of isomers) [(±)-I-3], in series [2], the “maximum possible effect (% MPE)” value is listed as 44.80%. Also, the pIC50 in series [1] is 7.82.

As for `Cc1ccc(S(=O)(=O)O)cc1.NCC1(CC(=O)O)CC2C3C=CC(C3)C21` (racemic) [(±)-I-4 p-toluenesulfonate], in series [2], the “area under the mechanical pain threshold-time curve compared with the vehicle control group” value is recorded as “significantly improved” and the “maximum possible effect (% MPE)” value is 95.95%.

Turning to `NCC1(CC(=O)O)CC2C3CCC(CC3)C21` (racemic) [(±)-I-5], in series [1], the pIC50 was 6.35.

In the case of `NCC1(CC(=O)O)CC2C3C=CC(CC3)C21` (racemic) [(±)-I-6 p-toluenesulfonate], the pIC50 in series [1] is 6.52.

`NCC1(CC(=O)O)CC2C3C[C@H]([C@H]4C[C@H]34)[C@@H]21` (mixture of isomers) [(±)-I-7]: in series [2], the “area under the mechanical pain threshold-time curve compared with the vehicle control group” value is reported as “significantly improved” and the “maximum possible effect (% MPE)” value was 73.63%. In series [3], the animal death entry is on record as “no animals are dead”. For the same compound, in series [3] (per animal), the “Observation of clinical symptoms 0.5 h” value is given as 0, the “Observation of clinical symptoms 2 h” value is recorded as 3, the “Observation of clinical symptoms 4 h” value is 0 and the “Observation of clinical symptoms 6 h” value is recorded as 0. The “Observation of clinical symptoms 24 h” value in series [3] (per animal) is given as 0. Also, the “Observation of clinical symptoms 1 h” value in series [3] (per animal, 300 mg/kg) is 3. The pIC50 in series [1] was 7.15.

In the case of `CC1=C(C)C2(C)C3C(CC3(CN)CC(=O)O)C1(C)C2C` (racemic) [(±)-I-8], in series [1], the pIC50 was < 6.14.

On to `NCC1(CC(=O)O)CC2C1C1C=CC2C12CC2` (racemic) [(±)-I-9 p-toluenesulfonate], for which the pIC50 in series [1] is < 6.14.

With `NCC1(CC(=O)O)CC2C1C1CCC2C12CC2` (racemic) [(±)-I-10], the pIC50 in series [1] is < 6.14.

For `NCC1(CC(=O)O)CC2C3C=CC(C3)C21` (racemic) [(±)-I-11 p-toluenesulfonate], the pIC50 in series [1] was < 6.14.

For the compound `NCC1(CC(=O)O)CC2C3CCC(C3)C21` (racemic) [(±)-I-12], the pIC50 in series [1] was < 6.14.

With `CC1(C)C2CC[C@@H]1[C@H]1C2CC1(CN)CC(=O)O` (mixture of isomers) [(±)-I-14], the pIC50 in series [1] is 6.22.

For the compound `CC1(C)C2C=CC1C1C2CC1(CN)CC(=O)O` (racemic) [(±)-I-15 p-toluenesulfonate], the negative logarithm of the IC50 (pIC50) in series [1] was 6.24.

Take `CC1C2CC[C@@H]1[C@H]1C2CC1(CN)CC(=O)O` (mixture of isomers) [(±)-I-16]: the negative logarithm of the IC50 (pIC50) in series [1] is 6.32.

Take `CC1C2C=CC1C1C2CC1(CN)CC(=O)O` (racemic) [(±)-I-17 p-toluenesulfonate]: in series [1], the pIC50 is 6.34.

As to `CC1=C(C)C2(C)CC1(C)C1CC(CN)(CC(=O)O)C12` (racemic) [(±)-I-18], in series [1], the negative-log IC50 (pIC50) is < 6.14.

For the compound `CC1=C(C)C2(C)C3C(CC3(CN)CC(=O)O)C1(C)C2(C)C` (racemic) [(±)-I-19], the negative logarithm of the IC50 (pIC50) in series [1] is < 6.14.

Turning to `Cc1ccc(S(=O)(=O)O)cc1.NCC1(CC(=O)O)CC2C3CCC(C3)C21` (single isomer, unassigned; (-)) [(−)-I-3 p-toluenesulfonate], in series [2], the “maximum possible effect (MPE)” value was 30.22%. In series [1], the pIC50 is < 6.61.

`NCC1(CC(=O)O)CC2C3C=CC(C3)C21` (single isomer, unassigned; (-)) [(−)-I-4 p-toluenesulfonate]: in series [2], the “maximum possible effect (MPE)” value is recorded as 18.53%. In series [1], the negative-log IC50 (pIC50) is < 6.61.

Take `CC[C@@H](C(N)=O)N1CCCC1=O` [Levetiracetam]: in series [4], the “Number of animals with clonic seizures/total number” value is reported as 3/11** and the “Protection rate (%)” value was 72.7 *** %.
